Experimental data reported in patent US8952157B2, “Apoptosis-inducing agents for the treatment of cancer and immune and autoimmune diseases” (AbbVie Inc., priority 2008, dated 2015).

These molecules were tested against GST-Bcl-2 (Homo sapiens (Human), UniProt P10415) (assay: Time Resolved-Fluorescence Resonance Energy Transfer (TR-FRET) Bcl-2 binding assay). Details: not given.
Chain of GST-Bcl-2 (P10415 whole entry): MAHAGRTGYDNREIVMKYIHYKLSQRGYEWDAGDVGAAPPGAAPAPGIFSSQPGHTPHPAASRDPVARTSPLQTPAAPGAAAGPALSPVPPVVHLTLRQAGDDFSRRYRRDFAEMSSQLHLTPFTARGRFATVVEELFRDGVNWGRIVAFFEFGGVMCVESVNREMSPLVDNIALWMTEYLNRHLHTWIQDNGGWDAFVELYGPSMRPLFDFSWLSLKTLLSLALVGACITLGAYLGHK
Method in brief: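 Competition TR-FRET: GST-Bcl-2 with fluorescent Bak peptide probe and Tb-anti-GST antibody, compounds serially diluted from 50 μM (2× start, 10% DMSO).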
With `CC1(C)CCC(CN2CCN(c3ccc(C(=O)NS(=O)(=O)c4ccc(N[C@H]5CC[C@H](N6CCN(C7CCOCC7)CC6)CC5)c([N+](=O)[O-])c4)c(Oc4cc5cc[nH]c5cc4F)c3)CC2)=C(c2ccc(Cl)cc2)C1` [Example 336, Trans-4-(4-{[2-(4-chlorophenyl)-4,4-dimethylcyclohex-1-en-1-yl]methyl}piperazin-1-yl)-2-[(6-fluoro-1H-indol-5-yl)oxy]-N-[(3-nitro-4-{[4-(4-tetrahydro-2H-pyran-4-ylpiperazin-1-yl)cyclohexyl]amino}phenyl)sulfonyl]benzamide] the Ki was less than 0.01 nM.
Molecule `CC1(C)CCC(CN2CCN(c3ccc(C(=O)NS(=O)(=O)c4cnc(N[C@H]5CC[C@H](N6CCOCC6)CC5)c(Br)c4)c(Oc4cc5cc[nH]c5cc4F)c3)CC2)=C(c2ccc(Cl)cc2)C1` [Example 307, Trans-N-({5-bromo-6-[(4-morpholin-4-ylcyclohexyl)amino]pyridin-3-yl}sulfonyl)-4-(4-{[2-(4-chlorophenyl)-4,4-dimethylcyclohex-1-en-1-yl]methyl}piperazin-1-yl)-2-[(6-fluoro-1H-indol-5-yl)oxy]benzamide] has a Ki of 0.524 nM.
`CC1(C)CCC(CN2CCN(c3ccc(C(=O)NS(=O)(=O)c4ccc(N[C@H]5CC[C@H](NC6CCOCC6)CC5)c([N+](=O)[O-])c4)c(Oc4cc5cc[nH]c5cc4F)c3)CC2)=C(c2ccc(Cl)cc2)C1` [Example 335, Trans-4-(4-{[2-(4-chlorophenyl)-4,4-dimethylcyclohex-1-en-1-yl]methyl}piperazin-1-yl)-2-[(6-fluoro-1H-indol-5-yl)oxy]-N-[(3-nitro-4-{[4-(tetrahydro-2H-pyran-4-ylamino)cyclohexyl]amino}phenyl)sulfonyl]benzamide] gave a Ki of less than 0.01 nM.

Same assay, conditions: GST-Bcl-2 1 nM, F-Bak peptide probe 100 nM, Tb-anti-GST antibody 1 nM; Ki by Wang's equation
`Nc1ncc(Oc2cc(N3CCN(CC4=C(c5ccc(Cl)cc5)CCC5(CCN(C(CF)CF)CC5)C4)CC3)ccc2C(=O)NS(=O)(=O)c2ccc(NCC3CCOCC3)c([N+](=O)[O-])c2)cc1Cl` [Example 391, 2-[(6-amino-5-chloropyridin-3-yl)oxy]-4-[4-({9-(4-chlorophenyl)-3-[2-fluoro-1-(fluoromethyl)ethyl]-3-azaspiro[5.5]undec-8-en-8-yl}methyl)piperazin-1-yl]-N-({3-nitro-4-[(tetrahydro-2H-pyran-4-ylmethyl)amino]phenyl}sulfonyl)benzamide] showed a Ki of less than 0.01 nM.
For `CC1(C)CCC(CN2CCN(c3ccc(C(=O)NS(=O)(=O)c4cnc(OC[C@@H]5CCN(C(CF)CF)C5)c(Cl)c4)c(Oc4cnc(N)c(Cl)c4)c3)CC2)=C(c2ccc(Cl)cc2)C1` [Example 399, 2-[(6-amino-5-chloropyridin-3-yl)oxy]-N-{[5-chloro-6-({(3R)-1-[2-fluoro-1-(fluoromethyl)ethyl]pyrrolidin-3-yl}methoxy)pyridin-3-yl]sulfonyl}-4-(4-{[2-(4-chlorophenyl)-4,4-dimethylcyclohex-1-en-1-yl]methyl}piperazin-1-yl)benzamide], the Ki was less than 0.01 nM.
Work on `CC(=O)Nc1ccc(Oc2cc(N3CCN(Cc4ccccc4-c4ccc(Cl)cc4)CC3)ccc2C(=O)NS(=O)(=O)c2ccc(NCC3CCOCC3)c([N+](=O)[O-])c2)cc1` [Example 82, 2-(4-(acetylamino)phenoxy)-4-(4-((4′-chloro-1,1′-biphenyl-2-yl)methyl)piperazin-1-yl)-N-((3-nitro-4-((tetrahydro-2H-pyran-4-ylmethyl)amino)phenyl)sulfonyl)benzamide] yielded a Ki of 512 nM.
Work on `CC1(C)CCC(CN2CCN(c3ccc(C(=O)NS(=O)(=O)c4ccc(NCC5CCOCC5)c([N+](=O)[O-])c4)c(Oc4ccnc(N)c4)c3)CC2)=C(c2ccc(Cl)cc2)C1` [Example 282, 2-[(2-aminopyridin-4-yl)oxy]-4-(4-{[2-(4-chlorophenyl)-4,4-dimethylcyclohex-1-en-1-yl]methyl}piperazin-1-yl)-N-({3-nitro-4-[(tetrahydro-2H-pyran-4-ylmethyl)amino]phenyl}sulfonyl)benzamide] yielded a Ki of 1.01 nM.
`CN1C(C)(C)CC(Nc2ccc(S(=O)(=O)NC(=O)c3ccc(N4CCN(CC5=C(c6ccc(Cl)cc6)CC(C)(C)CC5)CC4)cc3Oc3ccccc3Cl)cc2[N+](=O)[O-])CC1(C)C` [Example 48, 2-(2-chlorophenoxy)-4-(4-((2-(4-chlorophenyl)-4,4-dimethylcyclohex-1-en-1-yl)methyl)piperazin-1-yl)-N-((3-nitro-4-((1,2,2,6,6-pentamethylpiperidin-4-yl)amino)phenyl)sulfonyl)benzamide] was tested, and the Ki was 0.053 nM.
Work on `CN(C)CCCc1ccccc1Oc1cc(N2CCN(Cc3ccccc3-c3ccc(Cl)cc3)CC2)ccc1C(=O)NS(=O)(=O)c1ccc(NCC2CCOCC2)c([N+](=O)[O-])c1` [Example 28, 4-(4-((4′-chloro-1,1′-biphenyl-2-yl)methyl)piperazin-1-yl)-2-(2-(3-(dimethylamino)propyl)phenoxy)-N-((3-nitro-4-((tetrahydro-2H-pyran-4-ylmethyl)amino)phenyl)sulfonyl)benzamide] yielded a Ki of 1.33 nM.
`CC1(C)CCC(CN2CCN(c3ccc(C(=O)NS(=O)(=O)c4ccc(NCC5CCOCC5)c([N+](=O)[O-])c4)c(Oc4ccccc4-c4cn[nH]c4)c3)CC2)=C(c2ccc(Cl)cc2)C1` [Example 406, 4-(4-{[2-(4-chlorophenyl)-4,4-dimethylcyclohex-1-en-1-yl]methyl}piperazin-1-yl)-N-({3-nitro-4-[(tetrahydro-2H-pyran-4-ylmethyl)amino]phenyl}sulfonyl)-2-[2-(1H-pyrazol-4-yl)phenoxy]benzamide] showed a Ki of 0.166 nM.
Work on `CC(C)N1CCC(Nc2ccc(S(=O)(=O)NC(=O)c3ccc(N4CCN(CC5=C(c6ccc(Cl)cc6)CC(C)(C)CC5)CC4)cc3Oc3ccccc3Cl)cc2[N+](=O)[O-])CC1` [Example 41, 2-(2-chlorophenoxy)-4-(4-((2-(4-chlorophenyl)-4,4-dimethylcyclohex-1-en-1-yl)methyl)piperazin-1-yl)-N-((4-((1-isopropylpiperidin-4-yl)amino)-3-nitrophenyl)sulfonyl)benzamide] yielded a Ki of 0.027 nM.
Work on `CC1(C)CCC(CN2CCN(c3ccc(C(=O)NS(=O)(=O)c4ccc(NC5CCN(CCCc6ccccc6)CC5)c([N+](=O)[O-])c4)c(Oc4cccc(Cl)c4)c3)CC2)=C(c2ccc(Cl)cc2)C1` [Example 172, 2-(3-chlorophenoxy)-4-(4-{[2-(4-chlorophenyl)-4,4-dimethylcyclohex-1-en-1-yl]methyl}piperazin-1-yl)-N-[(3-nitro-4-{[1-(3-phenylpropyl)piperidin-4-yl]amino}phenyl)sulfonyl]benzamide] yielded a Ki of 0.549 nM.
Work on `Cn1ccc2c(Oc3cc(N4CCN(Cc5ccccc5-c5ccc(Cl)cc5)CC4)ccc3C(=O)NS(=O)(=O)c3ccc(NCCCN4CCOCC4)c([N+](=O)[O-])c3)cccc21` [Example 68, 4-(4-((4′-chloro-1,1′-biphenyl-2-yl)methyl)piperazin-1-yl)-2-((1-methyl-1H-indol-4-yl)oxy)-N-((4-((3-morpholin-4-ylpropyl)amino)-3-nitrophenyl)sulfonyl)benzamide] yielded a Ki of 5.93 nM.
Work on `CN1CCC(Nc2ccc(S(=O)(=O)NC(=O)c3ccc(N4CCN(CC5=C(c6ccc(Cl)cc6)CC(C)(C)CC5)CC4)cc3Oc3cc4cc[nH]c4cc3F)cc2[N+](=O)[O-])CC1` [Example 154, 4-(4-{[2-(4-chlorophenyl)-4,4-dimethylcyclohex-1-en-1-yl]methyl}piperazin-1-yl)-2-[(6-fluoro-1H-indol-5-yl)oxy]-N-({4-[(1-methylpiperidin-4-yl)amino]-3-nitrophenyl}sulfonyl)benzamide] yielded a Ki of 0.012 nM.
`N#Cc1ccc(Oc2cc(N3CCN(Cc4ccccc4-c4ccc(Cl)cc4)CC3)ccc2C(=O)NS(=O)(=O)c2ccc(NCC3CCOCC3)c([N+](=O)[O-])c2)cc1` [Example 72, 4-(4-((4′-chloro-1,1′-biphenyl-2-yl)methyl)piperazin-1-yl)-2-(4-cyanophenoxy)-N-((3-nitro-4-((tetrahydro-2H-pyran-4-ylmethyl)amino)phenyl)sulfonyl)benzamide] showed a Ki of 31.7 nM.
“2-(2-chlorophenoxy)-4-(4-{([2-(4-chlorophenyl)-4,4-dimethylcyclohex-1-en-1-yl]methyl}piperazin-1-yl)-N-({4-[(1,4-dimethylpiperidin-4-yl)amino]-3-nitrophenyl}sulfonyl)benzamide [Example 168]” showed a Ki of 28.3 nM.
`CN(C)CCCNc1ccc(S(=O)(=O)NC(=O)c2ccc(N3CCN(Cc4ccccc4-c4ccc(Cl)cc4)CC3)cc2Oc2ccc(Cl)cc2)cc1[N+](=O)[O-]` [Example 15, 4-(4-((4′-chloro-1,1′-biphenyl-2-yl)methyl)piperazin-1-yl)-2-(4-chlorophenoxy)-N-((4-((3-(dimethylamino)propyl)amino)-3-nitrophenyl)sulfonyl)benzamide] was tested, and the Ki was 0.586 nM.
For `CC1(C)CCC(CN2CCN(c3ccc(C(=O)NS(=O)(=O)c4ccc(OCC5COCCO5)c([N+](=O)[O-])c4)c(Oc4cc5cc[nH]c5cc4F)c3)CC2)=C(c2ccc(Cl)cc2)C1` (centres unmarked) [Example 285, 4-(4-{[2-(4-chlorophenyl)-4,4-dimethylcyclohex-1-en-1-yl]methyl}piperazin-1-yl)-N-{[4-(1,4-dioxan-2-ylmethoxy)-3-nitrophenyl]sulfonyl}-2-[(6-fluoro-1H-indol-5-yl)oxy]benzamide], the Ki was 0.037 nM.
Work on `CC1(C)CCC(CN2CCN(c3ccc(C(=O)NS(=O)(=O)c4ccc(NC5CCN(C6CCOCC6)CC5)c([N+](=O)[O-])c4)c(Oc4cc5cc[nH]c5cc4Cl)c3)CC2)=C(c2ccc(Cl)cc2)C1` [Example 242, 2-[(6-chloro-1H-indol-5-yl)oxy]-4-(4-{[2-(4-chlorophenyl)-4,4-dimethylcyclohex-1-en-1-yl]methyl}piperazin-1-yl)-N-({3-nitro-4-[(1-tetrahydro-2H-pyran-4-ylpiperidin-4-yl)amino]phenyl}sulfonyl)benzamide] yielded a Ki of 0.092 nM.
In the case of `CN1CCN(Nc2ccc(S(=O)(=O)NC(=O)c3ccc(N4CCN(CC5=C(c6ccc(Cl)cc6)CC(C)(C)OC5)CC4)cc3Oc3cc4cc[nH]c4cc3F)cc2[N+](=O)[O-])CC1` [Example 316, 4-(4-{[4-(4-chlorophenyl)-6,6-dimethyl-5,6-dihydro-2H-pyran-3-yl]methyl}piperazin-1-yl)-2-[(6-fluoro-1H-indol-5-yl)oxy]-N-({4-[(4-methylpiperazin-1-yl)amino]-3-nitrophenyl}sulfonyl)benzamide], the Ki is reported as 0.058 nM.
